Patent publication US11318134B2, “Benzamide compounds” (priority 2018, dated 2022)

Tests used:
Bcl-2 = Bcl-2 (Homo sapiens (Human), UniProt P10415); assay: Bcl-2 protein family binding assay (Bcl2scan platform), Bcl-2; conditions: BIM peptide ligand, 11-point dilution, read-out: Bc1-2 Kd (nm)
Experimental: (§1) E. coli were grown to log-phase and infected with T7 phage from a frozen stock (multiplicity of infection=0.4) and incubated with shaking at 32° C. until lysis (90-150 minutes). The lysates were centrifuged (5,000×g) and filtered (0.2 μm) to remove cell debris. […] The liganded beads were blocked with excess biotin and washed with blocking buffer (SeaBlock (Pierce), 1% BSA, 0.05% Tween 20, 1 mM DTT) to remove unbound ligand and to reduce non-specific phage binding. […] Test compounds were prepared as 100× stocks in 100% DMSO. Kds were determined using an 11-point 3-fold compound dilution series with one DMSO control point. […] The compounds were then diluted directly into the assays such that the final concentration of DMSO was 0.9%. All reactions performed in polypropylene 384-well plates. Each was a final volume of 0.02 ml. […] The BCL2 concentration in the eluates was measured by qPCR. Binding constants (Kds) were calculated with a standard dose-response curve using the Hill equation:
(§2) [formula] The Hill Slope was set to −1. Curves were fitted using a non-linear least square fit with the Levenberg-Marquardt algorithm.

Bcl-XL = Bcl-XL (Homo sapiens (Human), UniProt Q07817); assay: Bcl-2 protein family binding assay (Bcl2scan platform), Bcl-XL; conditions: BIM peptide ligand, 11-point dilution, read-out: Bc1-XL Kd (nm)
Chain of Bcl-XL (Q07817 whole entry): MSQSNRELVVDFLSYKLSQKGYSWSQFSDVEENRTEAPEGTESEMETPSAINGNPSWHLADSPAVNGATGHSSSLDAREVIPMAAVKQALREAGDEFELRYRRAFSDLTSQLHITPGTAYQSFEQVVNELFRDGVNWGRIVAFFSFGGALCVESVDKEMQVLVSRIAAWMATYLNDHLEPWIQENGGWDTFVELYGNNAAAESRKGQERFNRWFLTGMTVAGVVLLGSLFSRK
Experimental: as §1, §2

RS4;11 cells = assay: RS4;11 cell proliferation assay (CellTiter-Glo); type: cell-based; conditions: Homo sapiens, RS4-11, 48 h, read-out: RS4;11 (nM), CTG IC50
Experimental: Cell proliferation was measured using the CellTiter-Glo® Luminescent Cell Viability Assay. The assay involved the addition of a single reagent (CellTiter-Glo® Reagent) directly to cells cultured in serum-supplemented medium.
Each compound evaluated was prepared as a DMSO stock solution (10 mM). Compounds were tested in duplicate on each plate, with a 10-point serial dilution curve (1:3 dilution). Compound treatment (1.0 μL) was added from the compound dilution plate to the cell plate. The highest compound concentration was 10 μM (final), with a 0.1% final DMSO concentration. Plates were then incubated at 37° C., 5% CO2. After 48 h of compound treatment for RS4;11 or 72 h for NCI-H1963, cell plates were equilibrated at rt for approximately 30 mins. An equi-volume amount of CellTiter-Glo® Reagent (40 μL) was added to each well. […] Luminescence was recorded using a Envision plate reader according to CellTiter-Glo protocol. IC50 of each compound was calculated using GraphPad Prism by nonlinear regression analysis.

Chain of Bcl-2 (P10415 whole entry): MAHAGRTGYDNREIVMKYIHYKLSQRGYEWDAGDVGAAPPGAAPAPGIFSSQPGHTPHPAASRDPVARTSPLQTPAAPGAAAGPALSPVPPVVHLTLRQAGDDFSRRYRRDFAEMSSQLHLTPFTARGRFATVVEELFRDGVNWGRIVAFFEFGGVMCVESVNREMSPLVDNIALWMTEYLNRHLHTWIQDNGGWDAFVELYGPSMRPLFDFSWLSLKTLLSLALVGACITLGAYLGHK

| Compound | Kd (Bcl-2) | Kd (Bcl-XL) | IC50 (RS4;11 cells) |
| --- | --- | --- | --- |
| CC1(C)CCC(CN2CCN(c3ccc(C(=O)NS(=O)(=O)c4ccc(NCC5CCOCC5)c([N+](=O)[O-])c4)c(Oc4cnc5[nH]ccc5c4)c3)CC2)=C(C23CC(Cl)(C2)C3)C1 [Example 1, 2-(1H-Pyrrolo[2,3-b]pyridin-5-yl-oxy)-4-(4-((2-(3-chlorobicyclo[1.1.1]pentan-1-yl)-4,4-dimethylcyclohex-1-en-yl)methyl)piperazin-1-yl)-N-(3-nitro-4-((tetrahydro-2H-pyran-4-yl)methylamino)phenylsulfonyl)benzamide] | < 10 nM | > 100 nM | < 100 nM |
| CC1(C)CCC(CN2CCN(c3ccc(C(=O)NS(=O)(=O)c4ccc(NCC5CCOCC5)c([N+](=O)[O-])c4)c(Oc4cnc5[nH]ccc5c4)c3)CC2)=C(C23CC(C)(C2)C3)C1 [Example 9, 2-(1H-pyrrolo[2,3-b]pyridin-5-yloxy)-4-(4-((4,4-dimethyl-2-(3-methylbicyclo[1.1.1]pentan-1-yl)cyclohex-1-enyl)methyl)piperazin-1-yl)-N-(3-nitro-4-((tetrahydro-2H-pyran-4-yl)methylamino)phenylsulfonyl)benzamide] | < 10 nM | > 100 nM | < 100 nM |
| CC1(C)CCC(CN2CCN(c3ccc(C(=O)NS(=O)(=O)c4ccc(NCC5CCOCC5)c([N+](=O)[O-])c4)c(Oc4cnc5[nH]ccc5c4)c3)CC2)=C(C23CC(F)(C2)C3)C1 [Example 10, 2-(1H-pyrrolo[2,3-b]pyridin-5-yloxy)-4-(4-((2-(3-fluorobicyclo[1.1.1]pentan-1-yl)-4,4-dimethylcyclohex-1-enyl)methyl)piperazin-1-yl)-N-(3-nitro-4-((tetrahydro-2H-pyran-4-yl)methylamino)phenylsulfonyl)benzamide] | < 10 nM | > 100 nM | < 100 nM |
| CC1(C)CCC(CN2CCN(c3ccc(C(=O)NS(=O)(=O)c4ccc(NCC5CC6(CCOCC6)C5)c([N+](=O)[O-])c4)c(Oc4cnc5[nH]ccc5c4)c3)CC2)=C(C23CC(C)(C2)C3)C1 [Example 11, 2-((1H-pyrrolo[2,3-b]pyridin-5-yl)oxy)-N-((4-(((7-oxaspiro[3.5]nonan-2-yl)methyl)amino)-3-nitrophenyl)sulfonyl)-4-(4-((4,4-dimethyl-2-(3-methylbicyclo[1.1.1]pentan-1-yl)cyclohex-1-en-1-yl)methyl)piperazin-1-yl)benzamide] | < 10 nM | > 100 nM | < 100 nM |
| CN1CCC(F)(CNc2ccc(S(=O)(=O)NC(=O)c3ccc(N4CCN(CC5=C(C67CC(C)(C6)C7)CC(C)(C)CC5)CC4)cc3Oc3cnc4[nH]ccc4c3)cc2[N+](=O)[O-])CC1 [Example 13, 2-((1H-pyrrolo[2,3-b]pyridin-5-yl)oxy)-4-(4-((4,4-dimethyl-2-(3-methylbicyclo[1.1.1]pentan-1-yl)cyclohex-1-en-1-yl)methyl)piperazin-1-yl)-N-((4-(((4-fluoro-1-methylpiperidin-4-yl)methyl)amino)-3-nitrophenyl)sulfonyl)benzamide] | < 10 nM | > 100 nM | < 100 nM |
| CC1(C)CCC(CN2CCN(c3ccc(C(=O)NS(=O)(=O)c4ccc(OCC5(F)CCOCC5)c([N+](=O)[O-])c4)c(Oc4cnc5[nH]ccc5c4)c3)CC2)=C(C23CC(C)(C2)C3)C1 [Example 16, 2-((1H-pyrrolo[2,3-b]pyridin-5-yl)oxy)-4-(4-((4,4-dimethyl-2-(3-methylbicyclo[1.1.1]pentan-1-yl)cyclohex-1-en-1-yl)methyl)piperazin-1-yl)-N-((4-((4-fluorotetrahydro-2H-pyran-4-yl)methoxy)-3-nitrophenyl)sulfonyl)benzamide] | < 10 nM | > 100 nM | < 100 nM |
| CN1CCOC(CNc2ccc(S(=O)(=O)NC(=O)c3ccc(N4CCN(CC5=C(C67CC(C)(C6)C7)CC(C)(C)CC5)CC4)cc3Oc3cnc4[nH]ccc4c3)cc2[N+](=O)[O-])C1 (centres unmarked) [Example 17, 2-((1H-pyrrolo[2,3-b]pyridin-5-yl)oxy)-4-(4-((4,4-dimethyl-2-(3-methylbicyclo[1.1.1]pentan-1-yl)cyclohex-1-en-1-yl)methyl)piperazin-1-yl)-N-((4-(((4-methylmorpholin-2-yl)methyl)amino)-3-nitrophenyl)sulfonyl)benzamide] | < 10 nM | 10 to 100 nM | < 100 nM |
| CN1CCO[C@H](CNc2ccc(S(=O)(=O)NC(=O)c3ccc(N4CCN(CC5=C(C67CC(C)(C6)C7)CC(C)(C)CC5)CC4)cc3Oc3cnc4[nH]ccc4c3)cc2[N+](=O)[O-])C1 [Example 18, (R)-2-((1H-pyrrolo[2,3-b]pyridin-5-yl)oxy)-4-(4-((4,4-dimethyl-2-(3-methylbicyclo[1.1.1]pentan-1-yl)cyclohex-1-en-1-yl)methyl)piperazin-1-yl)-N-((4-(((4-methylmorpholin-2-yl)methyl)amino)-3-nitrophenyl)sulfonyl)benzamide] |  |  | < 100 nM |
| CN1CCO[C@@H](CNc2ccc(S(=O)(=O)NC(=O)c3ccc(N4CCN(CC5=C(C67CC(C)(C6)C7)CC(C)(C)CC5)CC4)cc3Oc3cnc4[nH]ccc4c3)cc2[N+](=O)[O-])C1 [Example 19, (S)-2-((1H-pyrrolo[2,3-b]pyridin-5-yl)oxy)-4-(4-((4,4-dimethyl-2-(3-methylbicyclo[1.1.1]pentan-1-yl)cyclohex-1-en-1-yl)methyl)piperazin-1-yl)-N-((4-(((4-methylmorpholin-2-yl)methyl)amino)-3-nitrophenyl)sulfonyl)benzamide] |  |  | < 100 nM |
| CCC12CC(C3=C(CN4CCN(c5ccc(C(=O)NS(=O)(=O)c6ccc(NCC7CCOCC7)c([N+](=O)[O-])c6)c(Oc6cnc7[nH]ccc7c6)c5)CC4)CCC(C)(C)C3)(C1)C2 [Example 23, 2-(1H-pyrrolo[2,3-b]pyridin-5-yloxy)-4-(4-((2-(3-ethylbicyclo[1.1.1]pentan-1-yl)-4,4-dimethylcyclohex-1-enyl)methyl)piperazin-1-yl)-N-(3-nitro-4-((tetrahydro-2H-pyran-4-yl)methylamino)phenylsulfonyl)benzamide] | < 10 nM | > 100 nM | < 100 nM |
| CCC12CC(C3=C(CN4CCN(c5ccc(C(=O)NS(=O)(=O)c6ccc(NCC7(F)CCOCC7)c([N+](=O)[O-])c6)c(Oc6cnc7[nH]ccc7c6)c5)CC4)CCC(C)(C)C3)(C1)C2 [Example 25, 2-((1H-pyrrolo[2,3-b]pyridin-5-yl)oxy)-4-(4-((2-(3-ethylbicyclo[1.1.1]pentan-1-yl)-4,4-dimethylcyclohex-1-en-1-yl)methyl)piperazin-1-yl)-N-((4-(((4-fluorotetrahydro-2H-pyran-4-yl)methyl)amino)-3-nitrophenyl)sulfonyl)benzamide] | < 10 nM | > 100 nM | < 100 nM |
| CCC12CC(C3=C(CN4CCN(c5ccc(C(=O)NS(=O)(=O)c6ccc(OCC7(F)CCOCC7)c([N+](=O)[O-])c6)c(Oc6cnc7[nH]ccc7c6)c5)CC4)CCC(C)(C)C3)(C1)C2 [Example 26, 2-((1H-pyrrolo[2,3-b]pyridin-5-yl)oxy)-4-(4-((2-(3-ethylbicyclo[1.1.1]pentan-1-yl)-4,4-dimethylcyclohex-1-en-1-yl)methyl)piperazin-1-yl)-N-((4-((4-fluorotetrahydro-2H-pyran-4-yl)methoxy)-3-nitrophenyl)sulfonyl)benzamide] | < 10 nM | > 100 nM | < 100 nM |
